Experimental data published in US20220356174A1, “PYRIDIN-2-ONE COMPOUNDS USEFUL AS SMARCA2 ANTAGONISTS” (Epizyme, Inc., priority 2018, published 2022).
pIC50: −log10 of the molar value. Like-named read-outs stand apart in the source and are kept apart here.

Columns and labels:
[1] = target: T1, FL-SMARCA2 (full-length human SMARCA2 isoform 1) (Homo sapiens, UniProt P51531); assay: SMARCA2 ATPase activity assay (ADP-Glo, chicken mononucleosome substrate); format: biochemical; details: ATPase assay, enzyme 5 nM, ATP 250 uM, chicken mononucleosome 10 nM, 30 min preincubation
T1 construct: FLAG tag (YKDDDDK) (C); made in house; host or cells: Sf21 insect cells (baculovirus, pFastBacI)

A549 cells = assay: High-throughput proliferation (HTP) assay for A549 cells (CellTiter-Glo, 7 days); format: cell-based; details: Homo sapiens, 168 h, read-out: A549 SMARCA2 IC50
Outline: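 Seven-day growth of A549 (62.5 cells/well, F12K with 10% HI-FBS, 37° C.) with compound, read by CellTiter-Glo ATP luminescence. Percent inhibition scaled between DMSO wells and 10 μM Doxorubicin wells, then fitted for EC50 and IC50.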

H358 cells = assay: High-throughput proliferation (HTP) assay for H358 cells (CellTiter-Glo, 7 days); format: cell-based; details: Homo sapiens, NCI-H358, 168 h, read-out: H358 SMARCA2 IC50
Outline: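 Cells were plated at 1,000 cells/well in RPMI 1640 + 10% HI-FBS + 1% pen/strep on pre-dispensed compound and incubated 7 days at 37 °C, 5% CO2. Viability was read as ATP luminescence with CellTiter-Glo after 30 min at RT. DMSO served as 0% and 10 µM doxorubicin as 100% inhibition for EC50/IC50.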

FL-SMARCA4 = FL-SMARCA4 (Homo sapiens, UniProt P51532); assay: SMARCA4 ATPase activity assay (ADP-Glo, chicken mononucleosome substrate)
[2] = FL-SMARCA4 IC50, Table 3.2, ATPase assay, enzyme 5 nM, ATP 250 uM, chicken mononucleosome 10 nM, 30 min preincubation
[3] = FL-SMARCA4 IC>50, Table 3c.2, ATPase assay, enzyme 5 nM, ATP 250 uM, chicken mononucleosome 10 nM, 30 min preincubation
[4] = Table 3d.1, read-out: FL-SMARCA2 IC>50

T1 sequence (P51531 with tags, fused parts or gaps): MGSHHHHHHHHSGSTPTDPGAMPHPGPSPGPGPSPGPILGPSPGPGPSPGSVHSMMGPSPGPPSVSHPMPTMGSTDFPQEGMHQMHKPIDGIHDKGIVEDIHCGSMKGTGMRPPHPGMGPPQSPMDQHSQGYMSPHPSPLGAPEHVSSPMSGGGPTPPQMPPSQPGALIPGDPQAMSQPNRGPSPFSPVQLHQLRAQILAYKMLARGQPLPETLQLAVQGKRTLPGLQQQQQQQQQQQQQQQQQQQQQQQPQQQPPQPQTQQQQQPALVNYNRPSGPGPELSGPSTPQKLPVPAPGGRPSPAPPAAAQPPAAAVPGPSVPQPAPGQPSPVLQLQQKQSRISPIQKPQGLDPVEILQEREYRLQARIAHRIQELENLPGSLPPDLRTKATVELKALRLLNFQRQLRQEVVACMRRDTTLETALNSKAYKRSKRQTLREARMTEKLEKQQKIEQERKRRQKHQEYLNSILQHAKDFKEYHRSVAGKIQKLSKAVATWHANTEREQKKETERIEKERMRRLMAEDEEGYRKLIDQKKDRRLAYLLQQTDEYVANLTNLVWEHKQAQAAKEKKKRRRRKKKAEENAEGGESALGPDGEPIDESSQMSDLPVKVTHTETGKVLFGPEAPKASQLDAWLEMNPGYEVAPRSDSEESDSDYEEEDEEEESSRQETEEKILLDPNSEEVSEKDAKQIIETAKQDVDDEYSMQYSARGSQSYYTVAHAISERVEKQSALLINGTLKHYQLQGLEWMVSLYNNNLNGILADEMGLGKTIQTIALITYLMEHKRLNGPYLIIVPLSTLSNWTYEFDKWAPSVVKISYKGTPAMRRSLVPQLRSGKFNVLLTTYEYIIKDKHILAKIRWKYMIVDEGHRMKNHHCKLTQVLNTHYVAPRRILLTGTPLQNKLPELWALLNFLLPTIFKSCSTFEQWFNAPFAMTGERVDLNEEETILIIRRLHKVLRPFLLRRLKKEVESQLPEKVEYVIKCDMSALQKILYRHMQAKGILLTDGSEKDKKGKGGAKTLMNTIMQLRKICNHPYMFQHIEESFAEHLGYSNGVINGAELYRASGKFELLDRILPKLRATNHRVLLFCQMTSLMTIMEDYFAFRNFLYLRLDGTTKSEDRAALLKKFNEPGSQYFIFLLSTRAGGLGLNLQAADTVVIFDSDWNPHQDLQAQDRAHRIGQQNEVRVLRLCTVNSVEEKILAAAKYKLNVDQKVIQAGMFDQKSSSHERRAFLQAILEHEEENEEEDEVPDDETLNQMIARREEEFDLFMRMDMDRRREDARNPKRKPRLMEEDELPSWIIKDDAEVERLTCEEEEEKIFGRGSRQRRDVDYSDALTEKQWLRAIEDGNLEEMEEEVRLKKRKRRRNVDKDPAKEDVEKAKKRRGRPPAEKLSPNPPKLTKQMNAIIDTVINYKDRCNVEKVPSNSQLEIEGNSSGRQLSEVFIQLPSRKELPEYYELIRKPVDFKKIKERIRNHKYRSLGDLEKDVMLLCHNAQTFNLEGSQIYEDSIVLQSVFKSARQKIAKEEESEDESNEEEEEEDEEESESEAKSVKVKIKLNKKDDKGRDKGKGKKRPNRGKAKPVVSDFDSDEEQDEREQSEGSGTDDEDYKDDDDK
Sequence of FL-SMARCA4 (P51532 whole entry): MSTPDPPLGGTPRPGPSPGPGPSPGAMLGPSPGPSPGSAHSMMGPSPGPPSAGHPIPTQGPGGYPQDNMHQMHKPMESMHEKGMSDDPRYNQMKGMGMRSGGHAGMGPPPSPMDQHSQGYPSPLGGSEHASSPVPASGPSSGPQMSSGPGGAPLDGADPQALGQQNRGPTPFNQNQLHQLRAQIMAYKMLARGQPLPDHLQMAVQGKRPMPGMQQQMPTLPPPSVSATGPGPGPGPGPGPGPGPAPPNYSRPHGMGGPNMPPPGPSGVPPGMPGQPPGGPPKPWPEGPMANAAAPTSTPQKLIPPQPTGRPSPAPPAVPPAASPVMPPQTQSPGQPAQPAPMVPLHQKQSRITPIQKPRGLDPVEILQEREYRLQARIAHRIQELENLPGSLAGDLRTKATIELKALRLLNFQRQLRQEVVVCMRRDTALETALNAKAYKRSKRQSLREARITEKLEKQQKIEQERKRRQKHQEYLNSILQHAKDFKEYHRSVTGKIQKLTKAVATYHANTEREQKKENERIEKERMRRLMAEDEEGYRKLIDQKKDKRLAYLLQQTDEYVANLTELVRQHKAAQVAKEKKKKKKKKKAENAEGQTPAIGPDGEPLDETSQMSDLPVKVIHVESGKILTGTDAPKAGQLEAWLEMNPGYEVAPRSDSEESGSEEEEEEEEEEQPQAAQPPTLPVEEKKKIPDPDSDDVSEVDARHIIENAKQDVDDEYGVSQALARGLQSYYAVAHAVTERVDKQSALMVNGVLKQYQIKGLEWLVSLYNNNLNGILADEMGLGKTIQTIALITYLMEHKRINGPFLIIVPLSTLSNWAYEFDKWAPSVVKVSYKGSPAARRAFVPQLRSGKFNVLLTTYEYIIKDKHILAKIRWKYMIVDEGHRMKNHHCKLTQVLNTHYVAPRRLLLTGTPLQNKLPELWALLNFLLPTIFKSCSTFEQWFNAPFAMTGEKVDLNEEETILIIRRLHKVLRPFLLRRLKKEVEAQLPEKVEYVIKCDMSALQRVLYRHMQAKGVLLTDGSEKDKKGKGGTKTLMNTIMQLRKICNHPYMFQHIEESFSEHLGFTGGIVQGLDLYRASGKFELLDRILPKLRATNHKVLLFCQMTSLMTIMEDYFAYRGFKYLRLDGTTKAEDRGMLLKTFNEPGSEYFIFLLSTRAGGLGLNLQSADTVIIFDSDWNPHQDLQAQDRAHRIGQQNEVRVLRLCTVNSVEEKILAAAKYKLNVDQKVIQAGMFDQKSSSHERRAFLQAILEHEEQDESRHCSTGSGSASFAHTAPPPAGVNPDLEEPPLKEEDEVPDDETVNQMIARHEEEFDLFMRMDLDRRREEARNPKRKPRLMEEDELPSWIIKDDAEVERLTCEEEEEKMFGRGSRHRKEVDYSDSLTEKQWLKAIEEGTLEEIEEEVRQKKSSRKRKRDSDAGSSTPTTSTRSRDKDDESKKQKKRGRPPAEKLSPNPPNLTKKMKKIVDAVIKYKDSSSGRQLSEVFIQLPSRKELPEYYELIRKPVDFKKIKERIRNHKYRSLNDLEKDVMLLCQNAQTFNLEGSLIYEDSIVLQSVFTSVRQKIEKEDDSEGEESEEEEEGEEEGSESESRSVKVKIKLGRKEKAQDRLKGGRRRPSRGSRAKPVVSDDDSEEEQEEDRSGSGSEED

| pIC50 ([1]; Table 3.1) | pIC50 (A549 cells) | pIC50 (H358 cells) | pIC50 (FL-SMARCA4; [2]) | pIC50 ([1]; Table 3c.1) | pIC50 (FL-SMARCA4; [3]) | pIC50 [1, 4] | pIC50 (FL-SMARCA4; FL-SMARCA4 IC50) | Structure (SMILES) |
| --- | --- | --- | --- | --- | --- | --- | --- | --- |
| 6.74 | 5.28 | < 5.00 | 6.22 |  |  |  |  | O=C(Nc1cc(F)c(=O)n(CC(F)F)c1)c1cc(C#Cc2cncnc2)c(Cl)s1 [Compound 346] |
|  | 5.63 | < 5.00 |  | 7.09 | 6.63 |  |  | CC#Cc1cc(C(=O)Nc2cc(F)c(=O)n(CC(F)F)c2)sc1Cl [Compound 85c] |
| 6.56 | 5.02 | < 5.00 | 6.13 |  |  |  |  | C#Cc1cc(NC(=O)c2cc(F)c(Cl)s2)cn(CC(F)F)c1=O [Compound 342] |
|  | 5.20 | < 5.00 |  |  |  | 7.24 | 6.42 | N#Cc1cc(C(=O)Nc2cc(F)c(=O)n(CC(F)F)c2)sc1C(F)(F)Cl [Compound 78d] |
|  | < 5.00 | < 5.00 |  |  |  | 5.77 | 5.34 | CC(N)C#Cc1cc(C(=O)Nc2cc(F)c(=O)n(CC(F)F)c2)sc1Cl (stereo not drawn) [Compound 138d] |
| 7.12 | 5.68 | < 5.00 | 6.35 |  |  |  |  | O=C(Nc1cc(F)c(=O)n(CC(F)F)c1)c1cnc(C(F)(F)F)s1 [Compound 297, N-(1-(2,2-difluoroethyl)-5-fluoro-6-oxo-1,6-dihydropyridin-3-yl)-2-(trifluoromethyl)thiazole-5-carboxamide] |
|  | 5.36 | 5.20 |  |  |  | 8.22 | 8.07 | N#Cc1ncc(C#Cc2cc(C(=O)Nc3cc(F)c(=O)n(CC(F)F)c3)sc2Cl)o1 [Compound 100d] |
|  | 5.36 | < 5.00 |  | 7.47 | 6.81 |  |  | O=C(Nc1cc(F)c(=O)n(CC(F)F)c1)c1cc(C#Cc2cccnc2)c(C(F)(F)F)s1 [Compound 65c] |
|  | 5.40 | 5.07 |  |  |  | 7.00 | 6.29 | N#Cc1cc(NC(=O)c2cc(Cl)c(C(F)(F)F)s2)cn(CC(F)F)c1=O [Compound 86d] |
|  | 5.20 | < 5.00 |  |  |  | 7.01 | 6.27 | N#Cc1cc(C(=O)Nc2cc(C#N)c(=O)n(CC(F)F)c2)sc1C(F)(F)F [Compound 56d] |
|  | 5.00 | < 5.00 |  |  |  | 6.46 | 5.67 | O=C(Nc1cc(F)c(=O)n(CC(F)F)c1)c1cc(-c2ccco2)c(Cl)s1 [Compound 112d] |

More lines, now with the values behind:

| Structure (SMILES) | pIC50 ([1]; Table 3.1) | pIC50 (A549 cells) | pIC50 (H358 cells) | pIC50 (FL-SMARCA4; [2]) | pIC50 ([1]; Table 3c.1) | pIC50 (FL-SMARCA4; [3]) | pIC50 [1, 4] | pIC50 (FL-SMARCA4; FL-SMARCA4 IC50) |
| --- | --- | --- | --- | --- | --- | --- | --- | --- |
| CC(=O)Nc1cccc(C#Cc2cc(C(=O)Nc3cc(F)c(=O)n(CC(F)F)c3)sc2Cl)c1 [Compound 75c] |  | 5.75 | < 5.00 |  | 7.70 | 7.26 |  |  |
| N#Cc1sc(C(=O)Nc2cc(F)c(=O)n(CC(F)F)c2)cc1C#C[C@H]1C[C@@H](O)C1 [Compound 105d] |  | 5.37 | < 5.00 |  |  |  | 7.50 | 7.04 |
| CNC(=O)Cn1cc(C#Cc2cc(C(=O)Nc3cc(F)c(=O)n(CC(F)F)c3)sc2Cl)cn1 [Compound 121c] |  | < 5.00 | < 5.00 |  | 6.72 | 6.42 |  |  |
| O=C(Nc1cc(F)c(=O)n(CC(F)F)c1)c1cc(C#CC2CCS(=O)(=O)CC2)c(Cl)s1 [Compound 99d] |  | 5.17 | < 5.00 |  |  |  | 6.71 | 6.61 |
| O=C(Nc1cc(C2COC2)c(=O)n(CC(F)F)c1)c1cc(F)c(Cl)s1 [Compound 155c] |  | < 5.00 | < 5.00 |  | 4.51 | 4.44 |  |  |
| O=C(Nc1cc(F)c(=O)n(CC(F)F)c1)c1cc(C#CC2CCCN2)c(Cl)s1 (stereo not drawn) [Compound 107d] |  | < 5.00 | < 5.00 |  |  |  | 6.24 | 5.81 |
| O=C(Nc1cc(F)c(=O)n(CC(F)F)c1)c1cc(C#CC2CCCOC2)c(Cl)s1 (stereo not drawn) [Compound 68d] |  | 5.62 | < 5.00 |  |  |  | 7.14 | 6.69 |
| O=C(Nc1cc(F)c(=O)n(CC(F)F)c1)c1cc(C#Cc2ccc3nccn3c2)c(Cl)s1 [Compound 115d] |  | 5.68 | < 5.00 |  |  |  | 7.45 | 7.00 |
| O=C(Nc1cc(F)c(=O)n(CC(F)F)c1)c1cc(-c2ccco2)on1 [Compound 124d] |  | < 5.00 | < 5.00 |  |  |  | < 4.30 | < 4.30 |
| N#Cc1nc(C#Cc2cc(C(=O)Nc3cc(F)c(=O)n(CC(F)F)c3)sc2Cl)cs1 [Compound 117c] |  | 5.74 | 5.83 |  | 8.28 | 8.16 |  |  |
| Cc1nsc(C#Cc2cc(C(=O)Nc3cc(F)c(=O)n(CC(F)F)c3)sc2Cl)n1 [Compound 139c] |  | 6.19 | 6.26 |  | 7.22 | 6.73 |  |  |
| CN1CC(C#Cc2cc(C(=O)Nc3cc(F)c(=O)n(CC(F)F)c3)sc2Cl)CC1=O (stereo not drawn) [Compound 113d] |  | < 5.00 | < 5.00 |  |  |  | 6.01 | 5.54 |
| O=C(Nc1cc(F)c(=O)n(CC(F)F)c1)c1cc(C#CC2CCNC2)c(Cl)s1 (stereo not drawn) [Compound 106d] |  | < 5.00 | < 5.00 |  |  |  | 5.66 | 5.25 |
| CN(C)C(=O)c1cccc(C#Cc2cc(C(=O)Nc3cc(F)c(=O)n(CC(F)F)c3)sc2Cl)c1 [Compound 74c] |  | 5.41 | < 5.00 |  | 7.17 | 6.61 |  |  |
| Nc1cc(C#Cc2cc(C(=O)Nc3cc(F)c(=O)n(CC(F)F)c3)sc2Cl)ccn1 [Compound 124c] |  | 5.97 | 5.14 |  | 7.96 | 7.75 |  |  |
| O=C(Nc1cc(F)c(=O)n(CC(F)F)c1)c1cc(C#C[C@H]2C[C@H](CO)C2)c(Cl)s1 [Compound 133d] |  | 5.54 | < 5.00 |  |  |  | 7.34 | 6.78 |
| O=C(Nc1cc(F)c(=O)n(CC(F)F)c1)c1cc(C#CC2CCO2)c(Cl)s1 (stereo not drawn) [Compound 77d] |  | 5.13 | < 5.00 |  |  |  | 6.80 | 6.33 |
| O=C(O)c1cccc(C#Cc2cc(C(=O)Nc3cc(F)c(=O)n(CC(F)F)c3)sc2Cl)c1 [Compound 131c] |  | < 5.00 | < 5.00 |  | 8.06 | 7.86 |  |  |
| O=C1CCC(C#Cc2cc(C(=O)Nc3cc(F)c(=O)n(CC(F)F)c3)sc2Cl)CN1 (stereo not drawn) [Compound 153c] |  | < 5.00 | 5.16 |  | 6.68 | 6.36 |  |  |
| O=C(Nc1cc(F)c(=O)n(CC(F)F)c1)c1cc(C#CC2COC2)c(Cl)s1 [Compound 343] | 7.64 | 6.31 | < 5.00 | 6.97 |  |  |  |  |
| O=C(Nc1cc(F)c(=O)n(CC(F)F)c1)c1cc(C#CC2COCCO2)c(Cl)s1 (stereo not drawn) [Compound 114d] |  | 5.56 | < 5.00 |  |  |  | 6.95 | 6.43 |
| O=C(Nc1cc(F)c(=O)n(CC(F)F)c1)c1cc(C#Cc2ccc3nncn3c2)c(Cl)s1 [Compound 91d] |  | < 5.00 | < 5.00 |  |  |  | 7.64 | 7.16 |
